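Cultured in 96-well plates, cells were exposed to test compound for 48 hours across five concentrations. The concentration for full growth arrest is given as TGI.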
Experiments:
Assay in all cases: NCI-60 cell line screen, 48 h
DU-145 prostate = system: DU-145 prostate
HCC-2998 colon = system: HCC-2998 colon
HL-60(TB) leukemia = system: HL-60(TB) leukemia
MDA-MB-231 breast = system: MDA-MB-231 breast
MCF7 breast = system: MCF7 breast
SN12C renal = system: SN12C renal
MDA-N = system: MDA-N
UACC-62 melanoma = system: UACC-62 melanoma
HCT-15 colon = system: HCT-15 colon
SF-295 CNS = system: SF-295 CNS
HOP-92 NSCLC = system: HOP-92 NSCLC
COLO 205 colon = system: COLO 205 colon
PC-3 prostate = system: PC-3 prostate

SMILES | TGI (DU-145 prostate) | TGI (HCC-2998 colon) | TGI (HL-60(TB) leukemia) | TGI (MDA-MB-231 breast) | TGI (MCF7 breast) | TGI (SN12C renal) | TGI (MDA-N) | TGI (UACC-62 melanoma) | TGI (HCT-15 colon) | TGI (SF-295 CNS) | TGI (HOP-92 NSCLC) | TGI (COLO 205 colon) | TGI (PC-3 prostate)
CC(=O)NC1=NC(=O)/C(=C/c2ccc(/C=C3/C(=O)N=C(NC(C)=O)N3C)cc2)N1C | > 100 µM | > 100 µM | > 100 µM | > 100 µM | > 100 µM | > 100 µM | > 100 µM | > 100 µM | > 100 µM | > 100 µM | > 100 µM | > 100 µM | –
CCn1c2ccccc2c2c(-c3ccccc3)cc3c(c21)C(=O)N(c1ccccc1)C3=O | – | > 100 µM | > 100 µM | – | – | > 100 µM | – | > 100 µM | > 100 µM | > 100 µM | 90.5 µM | > 100 µM | –
CN(CCc1ccccn1)C(=S)N/N=C(\c1ccccc1)c1ccccn1 | 5.66 µM | 5.39 µM | > 100 µM | – | > 100 µM | 15 µM | 8.51 µM | 2.04 µM | 12.8 µM | 2.7 µM | 3.59 µM | 17.3 µM | 6.67 µM
Cn1cc(S(=O)(=O)NC(=O)Nc2ccc(Cl)cc2)c(=O)c2ccc(F)cc21 | > 100 µM | > 100 µM | > 100 µM | > 100 µM | – | > 100 µM | > 100 µM | 63.4 µM | > 100 µM | > 100 µM | > 100 µM | > 100 µM | > 100 µM
COc1cc(-c2c3c(cc4c2OCO4)[C@@H](Nc2ccc(-c4ccc(-c5ccc(N[C@@H]6c7cc8c(cc7C(c7cc(OC)c(O)c(OC)c7)[C@H]7C(=O)OC[C@H]67)OCO8)cc5)cc4)cc2)[C@H]2COC(=O)[C@@H]2C3)cc(OC)c1O (stereo partly drawn) | 4.74 µM | – | – | 6 µM | 12.1 µM | 24.4 µM | – | – | 4.79 µM | 3.82 µM | 29.4 µM | 3.34 µM | 8.37 µM
CC(C)(NC(=O)OCc1ccccc1)C(=O)OC(=O)C(C)(C)NC(=O)OCc1ccccc1 | – | – | – | > 100 µM | > 100 µM | > 100 µM | > 100 µM | > 100 µM | > 100 µM | > 100 µM | > 100 µM | > 100 µM | > 100 µM
COC(=O)Nc1nc2ccc(S(=O)(=O)N3CCOCC3)cc2[nH]1 | > 100 µM | – | > 100 µM | > 100 µM | > 100 µM | > 100 µM | > 100 µM | > 100 µM | > 100 µM | > 100 µM | > 100 µM | > 100 µM | > 100 µM
NC(=O)CC(N=Cc1nc(-c2ccccc2)oc1O)C(=O)O (stereo not drawn) | – | > 100 µM | > 100 µM | – | – | – | – | > 100 µM | > 100 µM | > 100 µM | > 100 µM | > 100 µM | –
CCc1c(-c2ccc(OC)cc2)oc(OC)c(C)c1=O | > 100 µM | > 100 µM | – | > 100 µM | > 100 µM | > 100 µM | – | > 100 µM | > 100 µM | > 100 µM | > 100 µM | > 100 µM | > 100 µM
COc1cc2c(/C=C3/C(=O)N(C)c4ccc(O)cc43)c(Cl)[nH]c2cc1C | 18.4 µM | 0.85 µM | 3.02 µM | 15 µM | 33.4 µM | 17 µM | – | 13.6 µM | 12.8 µM | 2.93 µM | 38.5 µM | 2.37 µM | 20.8 µM
CC1=C(C)CC2(C=C(C(C)(C)C)C(=O)C(C(C)(C)C)=C2)SC1 | > 100 µM | – | 64.6 µM | 29.2 µM | 36.6 µM | 33.2 µM | 90.3 µM | 95.6 µM | – | 31.4 µM | 47.7 µM | 32.1 µM | 73.8 µM
COc1cc(C(C)O)c[n+](CCC2CNc3ccccc32)c1 (stereo not drawn) | – | > 100 µM | > 100 µM | – | – | > 100 µM | – | > 100 µM | > 100 µM | > 100 µM | – | > 100 µM | –
Cc1nc2cc(Nc3ccccc3C(=O)O)ccc2s1 | – | > 100 µM | > 100 µM | – | – | > 100 µM | – | > 100 µM | > 100 µM | > 100 µM | > 100 µM | > 100 µM | –
O=C(Cn1c(C(=O)c2ccccc2)nc2ccccc21)c1ccccc1 | > 100 µM | > 100 µM | > 100 µM | > 100 µM | > 100 µM | > 100 µM | – | > 100 µM | > 100 µM | > 100 µM | > 100 µM | > 100 µM | > 100 µM
Clc1ccc(C[P+](c2ccccc2)(c2ccccc2)c2ccccc2)cc1Cl | – | 11.2 µM | 14.9 µM | – | – | 15.3 µM | – | 9.33 µM | 44.5 µM | 22.2 µM | 6.02 µM | 2.95 µM | –
C[C@]12CC(c3ccccc3O1)C(C(=O)Nc1nc(C34CC5CC(CC(C5)C3)C4)cs1)C(=O)N2 (stereo partly drawn) | > 100 µM | > 100 µM | > 100 µM | > 100 µM | > 100 µM | > 100 µM | – | > 100 µM | > 100 µM | – | > 100 µM | > 100 µM | > 100 µM
O=C(O)/C=C/c1ccc2c(c1)CC1(Cc3ccccc3C1)C2 | – | > 100 µM | 90.5 µM | > 100 µM | > 100 µM | > 100 µM | > 100 µM | > 100 µM | > 100 µM | > 100 µM | > 100 µM | 52.3 µM | > 100 µM
N/C1=C/C(=O)NC(=O)c2c(c3ccccc3oc2=O)C1 | > 100 µM | > 100 µM | > 100 µM | > 100 µM | – | > 100 µM | > 100 µM | > 100 µM | > 100 µM | – | > 100 µM | > 100 µM | > 100 µM
O=C1CN(c2cccc(Cl)c2)C(=O)CN1NCNN1CC(=O)N(c2cccc(Cl)c2)CC1=O | > 100 µM | > 100 µM | > 100 µM | – | > 100 µM | > 100 µM | > 100 µM | > 100 µM | > 100 µM | > 100 µM | > 100 µM | > 100 µM | > 100 µM
O=c1[nH]c(=O)n(COCc2ccccc2)cc1Nc1ccc(Br)cc1 | > 100 µM | > 100 µM | > 100 µM | – | > 100 µM | > 100 µM | > 100 µM | > 100 µM | > 100 µM | > 100 µM | > 100 µM | > 100 µM | > 100 µM
CCn1c(CCl)nc2c1C(=O)c1ccccc1C2=O | 9.02 µM | 2.9 µM | 6.85 µM | – | 3.79 µM | 2.97 µM | 3.85 µM | 3.14 µM | 3.19 µM | 3.54 µM | 3.75 µM | – | 4.53 µM
Cc1ccc(C2(c3ccc(F)cc3)OC(=O)c3ccccc32)c(O)c1 (stereo not drawn) | 28.7 µM | 38.4 µM | 41.9 µM | 46.1 µM | 37.5 µM | 27.9 µM | 24.3 µM | 23 µM | 32.7 µM | 24.5 µM | 34.9 µM | 41.6 µM | –
COc1cc2c(/C=C3/C(=O)Nc4ccc(Cl)cc43)c(Cl)[nH]c2cc1C | 4.38 µM | – | 13.6 µM | 4.62 µM | 34.9 µM | 2.67 µM | – | 2.87 µM | 4.7 µM | 10.5 µM | 24.2 µM | 2.44 µM | 11.6 µM
NC(=S)N1N=C2c3ccccc3CC[C@H]2[C@@H]1c1ccc(Cl)cc1 | – | > 100 µM | 61.6 µM | – | – | > 100 µM | – | > 100 µM | > 100 µM | > 100 µM | 58.2 µM | 34.8 µM | –
C[C@@H]1CC(=O)C[C@@H]2CC[C@H]3[C@@H]4CC[C@H](OC(=O)c5cccc6cc7ccccc7nc56)[C@H]4CC[C@@H]3[C@H]21 | 28.7 µM | – | – | 37 µM | – | 33.1 µM | 26.3 µM | 28.4 µM | 36.6 µM | 77.6 µM | 48.1 µM | 53.8 µM | 27.1 µM
C(=Nc1ccc(-c2nc3ccccc3s2)cc1)c1ccc[nH]1 | 34.5 µM | 31.9 µM | 72.6 µM | – | – | 44.8 µM | 33.6 µM | 30.7 µM | 38.7 µM | 27.9 µM | 40.1 µM | 31.8 µM | 31.5 µM
Cc1cc(S(=O)(=O)Nc2n[nH]c(N)n2)c(Cl)cc1Cl | > 10 µM | > 10 µM | > 10 µM | > 10 µM | – | > 10 µM | > 10 µM | > 10 µM | > 10 µM | > 10 µM | – | > 10 µM | > 10 µM
OC1COC2CC(Nc3ccccn3)OC12 (stereo not drawn) | – | > 100 µM | – | > 100 µM | – | > 100 µM | > 100 µM | > 100 µM | > 100 µM | > 100 µM | – | > 100 µM | > 100 µM
O=C(/C=C(\C(=O)c1cccs1)c1cccs1)c1ccc(C(=O)/C=C(\C(=O)c2cccs2)c2cccs2)cc1 | > 100 µM | > 100 µM | > 100 µM | > 100 µM | > 100 µM | > 100 µM | – | > 100 µM | > 100 µM | > 100 µM | – | > 100 µM | > 100 µM
